Results published in BigSolDB 2.1.

Cc1nc(C)c(C)nc1C
solubility (mole fraction)
Settings | in acetone | in acetonitrile | in ethanol | in ethyl acetate | in isopropanol | in methanol | in methyl acetate | in n-butanol | in n-propanol
273.15 K | 0.0459 | 0.0279 | 0.0644 | 0.0958 | 0.0534 | 0.111 | 0.0758 | 0.106 | 0.102
278.15 K | 0.0592 | 0.034 | 0.0775 | 0.113 | 0.0702 | 0.119 | 0.094 | 0.126 | 0.114
283.15 K | 0.0712 | 0.0405 | 0.0911 | 0.136 | 0.0814 | 0.143 | 0.112 | 0.152 | 0.138
288.15 K | 0.0869 | 0.0503 | 0.11 | 0.16 | 0.0998 | 0.162 | 0.133 | 0.175 | 0.158
293.15 K | 0.106 | 0.0587 | 0.128 | 0.181 | 0.115 | 0.194 | 0.156 | 0.205 | 0.185
298.15 K | 0.132 | 0.0743 | 0.162 | 0.212 | 0.142 | 0.222 | 0.189 | 0.235 | 0.213
303.15 K | 0.156 | 0.0888 | 0.186 | 0.244 | 0.166 | 0.262 | 0.216 | 0.262 | 0.245
308.15 K | 0.185 | 0.115 | 0.216 | 0.284 | 0.196 | 0.296 | 0.254 | 0.302 | 0.3
313.15 K | 0.209 | 0.147 | 0.255 | 0.34 | 0.249 | 0.342 | 0.291 | 0.351 | 0.347
